The results in this text go back to publication PMC6644896 (ACS Omega, 2018).

The structures appear in SMILES notation.

The target in experiment [1] is T1, human DNA topoisomerase I (Homo sapiens, UniProt P11387).
T1 sequence (P11387 2-765): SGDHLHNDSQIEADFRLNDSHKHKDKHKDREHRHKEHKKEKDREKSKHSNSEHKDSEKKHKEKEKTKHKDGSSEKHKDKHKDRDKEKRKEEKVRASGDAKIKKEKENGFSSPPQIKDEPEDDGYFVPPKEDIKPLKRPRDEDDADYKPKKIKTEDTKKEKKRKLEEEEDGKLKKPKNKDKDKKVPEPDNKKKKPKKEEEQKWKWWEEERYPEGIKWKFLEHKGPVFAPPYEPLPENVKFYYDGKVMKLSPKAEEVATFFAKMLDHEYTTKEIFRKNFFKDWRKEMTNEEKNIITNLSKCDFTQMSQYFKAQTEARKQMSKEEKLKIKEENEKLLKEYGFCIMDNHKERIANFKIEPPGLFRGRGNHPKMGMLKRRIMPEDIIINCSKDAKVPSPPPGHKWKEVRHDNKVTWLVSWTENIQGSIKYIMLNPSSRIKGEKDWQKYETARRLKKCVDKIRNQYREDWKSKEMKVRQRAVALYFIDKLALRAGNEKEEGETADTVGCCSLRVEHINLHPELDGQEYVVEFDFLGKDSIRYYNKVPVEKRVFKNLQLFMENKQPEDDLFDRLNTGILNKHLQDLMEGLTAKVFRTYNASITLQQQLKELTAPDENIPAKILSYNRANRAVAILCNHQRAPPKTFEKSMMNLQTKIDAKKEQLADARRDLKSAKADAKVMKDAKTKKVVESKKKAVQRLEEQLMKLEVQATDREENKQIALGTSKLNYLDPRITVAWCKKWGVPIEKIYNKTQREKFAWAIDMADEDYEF
In words: DNA relaxation assay, agarose gel. Format: biochemical.

For experiment [2], the target named is human DNA topoisomerase II alpha (Homo sapiens, UniProt P11388). In words: DNA relaxation assay, agarose gel. Format: biochemical.
Chain of human DNA topoisomerase II alpha (P11388 whole entry): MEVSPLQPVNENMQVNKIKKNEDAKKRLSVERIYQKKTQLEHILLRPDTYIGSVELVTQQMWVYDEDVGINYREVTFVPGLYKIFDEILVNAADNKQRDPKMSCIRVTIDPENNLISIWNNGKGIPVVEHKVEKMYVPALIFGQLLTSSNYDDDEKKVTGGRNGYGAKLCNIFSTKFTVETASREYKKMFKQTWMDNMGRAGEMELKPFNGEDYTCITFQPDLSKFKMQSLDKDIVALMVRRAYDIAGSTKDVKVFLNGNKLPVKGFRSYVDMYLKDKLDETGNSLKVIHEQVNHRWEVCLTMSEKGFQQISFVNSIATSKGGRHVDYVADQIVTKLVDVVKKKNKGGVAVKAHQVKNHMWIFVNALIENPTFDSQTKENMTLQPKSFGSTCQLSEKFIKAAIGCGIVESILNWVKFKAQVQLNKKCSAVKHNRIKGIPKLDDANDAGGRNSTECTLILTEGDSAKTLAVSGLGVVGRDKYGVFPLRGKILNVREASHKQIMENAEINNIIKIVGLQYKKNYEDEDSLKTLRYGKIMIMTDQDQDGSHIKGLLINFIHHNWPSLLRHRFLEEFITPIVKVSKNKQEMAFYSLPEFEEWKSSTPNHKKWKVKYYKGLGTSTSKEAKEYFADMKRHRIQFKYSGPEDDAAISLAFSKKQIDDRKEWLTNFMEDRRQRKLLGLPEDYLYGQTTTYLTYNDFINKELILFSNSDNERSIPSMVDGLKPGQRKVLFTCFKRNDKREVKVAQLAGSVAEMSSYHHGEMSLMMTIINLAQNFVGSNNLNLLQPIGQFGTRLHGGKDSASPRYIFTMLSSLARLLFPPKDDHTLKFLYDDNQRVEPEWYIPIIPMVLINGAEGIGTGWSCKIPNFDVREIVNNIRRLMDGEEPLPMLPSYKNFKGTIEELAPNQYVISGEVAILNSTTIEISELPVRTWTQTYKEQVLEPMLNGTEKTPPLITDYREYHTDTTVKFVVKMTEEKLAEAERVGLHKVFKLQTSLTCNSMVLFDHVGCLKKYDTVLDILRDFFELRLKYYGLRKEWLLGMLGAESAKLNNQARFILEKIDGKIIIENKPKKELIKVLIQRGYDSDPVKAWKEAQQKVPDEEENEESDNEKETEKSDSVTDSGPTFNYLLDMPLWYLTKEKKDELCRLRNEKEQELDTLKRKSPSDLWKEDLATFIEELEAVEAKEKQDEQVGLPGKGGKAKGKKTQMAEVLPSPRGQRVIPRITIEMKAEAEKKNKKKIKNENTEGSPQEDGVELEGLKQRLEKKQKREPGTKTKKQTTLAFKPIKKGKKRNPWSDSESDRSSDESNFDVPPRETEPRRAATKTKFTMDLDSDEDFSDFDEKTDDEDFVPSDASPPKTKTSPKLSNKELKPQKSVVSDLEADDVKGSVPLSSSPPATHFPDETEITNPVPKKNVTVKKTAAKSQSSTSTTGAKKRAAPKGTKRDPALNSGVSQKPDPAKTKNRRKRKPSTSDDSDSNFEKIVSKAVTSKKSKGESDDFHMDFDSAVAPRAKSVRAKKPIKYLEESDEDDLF

In the case of `CC[C@@]1(O)C(=O)OCc2c1cc1n(c2=O)Cc2cc3ccccc3nc2-1` [CPT, camptothecin], in experiment [1], the “DNA relaxation assay, agarose gel (5 and 10 μM)” value was “CPT (a control for topoisomerase I inhibition) and DOX (a control for topoisomerase II inhibition) at two different concentrations”.
Regarding `COc1cccc2c1C(=O)c1c(O)c3c(c(O)c1C2=O)C[C@@](O)(C(=O)CO)C[C@@H]3O[C@H]1C[C@H](N)[C@H](O)[C@H](C)O1` [DOX, doxorubicin], the “DNA relaxation assay, agarose gel (5 and 10 μM)” value in experiment [2] is recorded as “These showed no DNA migration, indicating complete inhibition of the respective topoisomerase enzymes”.
